Data on 1 compound can be found in US5420276A, “Analogs of oxetanyl purines and pyrimidines” (Abbott Laboratories, priority 1993, dated 1995).

As a reminder, the CC50 is the concentration that lowers cell viability or growth by half. Read a high CC50 as lower toxicity to the cells. Usually IC50 stands for the concentration that inhibits the measured activity by half.

Data set [1] has as its system Herpes Simplex Virus Type 1. As to the kind of experiment: Neutral red dye uptake assay for antiviral activity, HSV-1 in Vero cells. The format is cell-based. To be noted: Human alphaherpesvirus 1, HSV-1, Vero, concentration at which 50% CPE would be observed, read-out: MIC50. The procedure:
(§1) Vero cell monolayers were harvested by trypsinization. The number of viable cells per ml. was determined by staining an aliquot with trypan blue and counting in a hemocytometer. Cell densities were adjusted in growth medium to contain 4×10^5 cells/mi. 96-well sterile tissue culture plates were seeded with 100 μl/well of the adjusted cell suspensions, i.e., 4×10^4 cells/well. Seeded plates were incubated overnight at 37° C. with CO2.
(§2) After overnight incubation, monolayers were approximately confluent. The growth medium was removed and the monolayers in each cell were infected with 100 μl of virus diluted in maintenance medium to produce approximately 90% cytopathogenic effect (CPE) after 2 to 3 days incubation. The virus was allowed to adsorb for 1 hour at 37° C. with 4 to 6% CO2. Controls for cell growth were overlayed with virus-free maintenance medium. The maintenance medium containing residual virus was removed.
(§3) The test compounds were dissolved and/or diluted in maintenance medium to the concentration desired for testing and were added to the wells of the plate. Aliquots (100 μl ) of each concentration were added to wells in replicate (duplicate or triplicate). Controls for virus activity were overlayed with drug-free maintenance medium. Replicate wells containing only maintenance medium served as controls for background absorbance levels.
After incubation, the medium was removed from all the wells. 100 μl of neutral red solution was added to each well and the plate was incubated at 37° C. without CO2 for 2 hours. After the 2 hour incubation, the excess neutral red solution was removed. […]
The neutral red stain taken up by the viable cells was extracted by adding 100 μl/well of acidified methanol, pH 1.0. […] The amount of neutral red stain extracted into the methanol was quantified by determining the absorbance at a wavelength of 540 nm.
The percent CPE in virus controls was determined by the following formula: [formula]
The percent CPE in cells infected with virus and treated with the test compound was determined by the following formula: [formula] […]

A short description of another data set: in vitro. The format is cell-based, African green monkey. To be noted: monkey, vero cells. The procedure:
as §1, §2, §3
After incubation, the medium was removed from all the wells. 100 μl of neutral red solution was added to each well and the plate was incubated at 37° C. without CO2 for 2 hours. After the 2 hour incubation, the excess neutral red solution was removed. The plates were washed with 100 μl/well of PBS, pH 7.2 and then the PBS was removed.
The neutral red stain taken up by the viable cells was extracted by adding 100 μl/well of acidified methanol, pH 1.0. (The acidified methanol fixed the cells to the well). The plate was allowed to stand at room temperature for at least 15 minutes to allow for maximum extraction. The amount of neutral red stain extracted into the methanol was quantified by determining the absorbance at a wavelength of 540 nm. […]

The next data set deals with HSV-1 (E-377). As to the kind of experiment: CPE inhibition assay (MTT), HSV-1 (E-377) in Vero cells. In kind it is cell-based, herpes simplex virus type 1. To be noted: Human alphaherpesvirus 1, inhibited CPE by 50%. The procedure: Vero cells were pregrown as monolayers in wells of COSTAR 96-well tissue culture plates using suitable cell culture media. Stock viruses were pretitered according to the method of Reed and Muench (Amer. J. Hyg. 27 493 (1938)) and diluted in cell culture medium to yield 32 CCID50 (cell culture infectious dose, 50%) units per 0.1 mL. Antiviral assays were designed to test six concentrations of each compound, from cytotoxic to noncytotoxic levels, in triplicate against each of the challenge viruses in microtiter plate wells containing cell monolayers. To each of the replicate cell cultures were added 0.1 mL of the test-compound solution and 0.1 mL of virus suspension. Two compounds were evaluated per plate. The following controls were included:
(1) Cell controls containing cells+medium;
(2) Untreated, virus-infected cell controls;
(3) Test-compound cytotoxicity controls containing uninfected, test-compound treated cells;
(4) Test-compound color controls-test-compound+medium (no cells); and
(5) Reagent (experiment medium) controls-medium only (no cells).
The covered plates were incubated at 37° C. in a humidified atmosphere containing 2% CO2. When cytopathogenic effect (CPE) in untreated virus control wells reached 100%, 20 μL of 3-(4,5-dimethyl-thiazol-2-yl)-2,5-diphenyl tetrazolium bromide (MTT) (dissolved in PBS at 5 mg/mL) was pipetted into each of the plate wells. The plates were incubated at 37° C. for six hours; then 40 μL of 30% SDS (in 0.02N HCl) was added to each well. After overnight incubation at 37° C., the blue color or the MTT formazan was measured spectrophotometrically at 570 nm. The optical density (OD) value of each culture is a function of the amount of formazan produced which is proportional to the number of viable cells. A computer program was utilized to calculate the percent (CPE) reciprocal of % CPE reduction) of the virus-infected wells and % cell viability of the uninfected test-compound control wells.
The IC50 value is the minimum test-compound concentration (μg/mL) that inhibited CPE by 50% calculated by using a regression analysis program for semilog curve fitting. The TC25 value is the minimum test-compound concentration (μg/mL) that reduced cell viability by 25%.

≈ marks a conversion by molar mass, not a printed value.

With `O=c1[nH]c(=O)n([C@@H]2O[C@H](CO)[C@H]2CO)cc1C=CBr` [Example 44, 1-([2'R, 3'R, 4'S]-3',4'-Bis(hydroxymethyl)-2'-oxetanyl)-5-(2-bromo-1-vinyl)uracil], in data set [1], the EC50 was found to be 0.09 mg/L (≈ 0.27 µM). The CC50 in the data set “in vitro” is > 1000 mg/L. This compound also had a half-inhibitory concentration (IC50) with HSV-1 (E-377) of 0.072 mg/L (≈ 0.216 µM).
